Experiment [1] addresses Cytochrome P450 2C19 (Homo sapiens, UniProt P33261). Nature of the experiment: Cytochrome panel assay with activity outcomes. Panel member name: p450-cyp2c19 Compounds with AC50 equal or less than 10 uM are considered active. Conditions: read-out: AC50. Format: functional.
In experiment [2] the target is Cytochrome P450 2C9 (Homo sapiens, UniProt P11712).
In experiment [3] the target is T1, Heat shock factor protein 1 (Mus musculus, UniProt P38532).
T1 sequence (P38532 whole entry): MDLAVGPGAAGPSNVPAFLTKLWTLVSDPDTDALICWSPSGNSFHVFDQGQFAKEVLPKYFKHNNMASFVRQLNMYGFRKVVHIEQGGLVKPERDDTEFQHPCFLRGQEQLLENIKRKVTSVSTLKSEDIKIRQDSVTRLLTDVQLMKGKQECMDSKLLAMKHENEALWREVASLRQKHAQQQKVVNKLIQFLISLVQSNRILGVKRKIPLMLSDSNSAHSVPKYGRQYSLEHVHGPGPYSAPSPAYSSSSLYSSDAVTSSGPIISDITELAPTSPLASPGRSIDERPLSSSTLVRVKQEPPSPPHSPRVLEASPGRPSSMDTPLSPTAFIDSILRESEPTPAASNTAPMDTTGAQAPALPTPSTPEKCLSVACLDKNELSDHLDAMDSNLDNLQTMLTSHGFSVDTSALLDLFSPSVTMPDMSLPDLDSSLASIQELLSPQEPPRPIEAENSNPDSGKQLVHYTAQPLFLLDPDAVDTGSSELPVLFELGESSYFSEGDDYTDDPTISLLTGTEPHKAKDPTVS
Nature of the experiment: HSF1 potentiators in luciferase reporter cells, confirmation, cell-based, NIH3T3, luminescence, dose retest (AID 435004).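 Further: stress induced by proteasome inhibitor MG132 added 30 min after compound; luciferase reporter driven by HSF1 response element in NIH3T3 cells; actives raise luminescence as potentiators of the MG132 stress response.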 The experiment is classed as functional. For orientation: Reporter assays use an easily measured gene product as a stand-in for the process of interest.

In experiment [4] the target is T2, Cytochrome P450 1A2 (Homo sapiens, UniProt P05177).
T2 sequence (P05177 whole entry): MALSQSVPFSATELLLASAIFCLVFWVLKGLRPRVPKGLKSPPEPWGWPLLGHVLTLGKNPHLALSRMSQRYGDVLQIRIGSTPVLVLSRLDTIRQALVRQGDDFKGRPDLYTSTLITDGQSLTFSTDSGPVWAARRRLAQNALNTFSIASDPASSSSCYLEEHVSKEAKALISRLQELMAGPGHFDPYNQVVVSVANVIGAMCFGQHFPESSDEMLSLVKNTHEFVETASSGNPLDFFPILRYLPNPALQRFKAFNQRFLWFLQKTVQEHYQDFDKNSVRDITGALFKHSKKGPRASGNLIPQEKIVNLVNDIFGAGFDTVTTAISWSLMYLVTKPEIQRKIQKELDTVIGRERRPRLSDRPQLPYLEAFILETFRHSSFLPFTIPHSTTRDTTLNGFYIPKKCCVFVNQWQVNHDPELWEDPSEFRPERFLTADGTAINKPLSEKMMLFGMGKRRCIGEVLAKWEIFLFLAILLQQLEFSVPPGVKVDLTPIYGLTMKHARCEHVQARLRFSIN

Experiment [5] addresses Cytochrome P450 3A4 (Homo sapiens, UniProt P08684).
Experiment [6] has as its target T3, Replicative DNA helicase DnaB (Mycobacterium tuberculosis, UniProt P9WMR3).
T3 sequence (P9WMR3 whole entry): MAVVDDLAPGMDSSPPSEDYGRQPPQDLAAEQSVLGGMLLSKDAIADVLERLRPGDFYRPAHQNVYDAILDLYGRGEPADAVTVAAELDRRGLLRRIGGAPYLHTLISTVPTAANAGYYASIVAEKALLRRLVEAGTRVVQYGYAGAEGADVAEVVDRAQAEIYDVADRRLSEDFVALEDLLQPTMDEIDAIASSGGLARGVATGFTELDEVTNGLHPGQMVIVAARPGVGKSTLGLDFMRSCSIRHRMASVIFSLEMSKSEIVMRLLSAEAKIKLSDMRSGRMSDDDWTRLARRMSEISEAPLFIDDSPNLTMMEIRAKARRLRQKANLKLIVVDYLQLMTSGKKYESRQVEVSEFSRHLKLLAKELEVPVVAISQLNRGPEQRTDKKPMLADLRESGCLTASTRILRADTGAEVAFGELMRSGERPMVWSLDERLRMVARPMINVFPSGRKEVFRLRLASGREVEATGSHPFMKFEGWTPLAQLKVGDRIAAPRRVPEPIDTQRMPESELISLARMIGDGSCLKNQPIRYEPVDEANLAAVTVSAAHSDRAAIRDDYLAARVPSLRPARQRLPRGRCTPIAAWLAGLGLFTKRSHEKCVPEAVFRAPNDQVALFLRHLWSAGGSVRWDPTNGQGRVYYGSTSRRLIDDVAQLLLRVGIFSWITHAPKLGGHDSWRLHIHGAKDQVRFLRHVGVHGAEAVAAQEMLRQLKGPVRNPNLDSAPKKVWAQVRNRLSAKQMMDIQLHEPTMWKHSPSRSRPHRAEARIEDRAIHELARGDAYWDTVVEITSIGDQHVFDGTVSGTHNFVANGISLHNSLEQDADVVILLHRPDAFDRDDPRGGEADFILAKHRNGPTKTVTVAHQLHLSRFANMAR
Briefly: DnaB intein splicing inhibitors, dose response, biochemical, cell-free fluorescence (AID 449749). The experiment is classed as functional.

Experiment [7] concerns the target T4, Protein RecA (Mycobacterium tuberculosis, UniProt P9WHJ3).
T4 sequence (P9WHJ3 whole entry): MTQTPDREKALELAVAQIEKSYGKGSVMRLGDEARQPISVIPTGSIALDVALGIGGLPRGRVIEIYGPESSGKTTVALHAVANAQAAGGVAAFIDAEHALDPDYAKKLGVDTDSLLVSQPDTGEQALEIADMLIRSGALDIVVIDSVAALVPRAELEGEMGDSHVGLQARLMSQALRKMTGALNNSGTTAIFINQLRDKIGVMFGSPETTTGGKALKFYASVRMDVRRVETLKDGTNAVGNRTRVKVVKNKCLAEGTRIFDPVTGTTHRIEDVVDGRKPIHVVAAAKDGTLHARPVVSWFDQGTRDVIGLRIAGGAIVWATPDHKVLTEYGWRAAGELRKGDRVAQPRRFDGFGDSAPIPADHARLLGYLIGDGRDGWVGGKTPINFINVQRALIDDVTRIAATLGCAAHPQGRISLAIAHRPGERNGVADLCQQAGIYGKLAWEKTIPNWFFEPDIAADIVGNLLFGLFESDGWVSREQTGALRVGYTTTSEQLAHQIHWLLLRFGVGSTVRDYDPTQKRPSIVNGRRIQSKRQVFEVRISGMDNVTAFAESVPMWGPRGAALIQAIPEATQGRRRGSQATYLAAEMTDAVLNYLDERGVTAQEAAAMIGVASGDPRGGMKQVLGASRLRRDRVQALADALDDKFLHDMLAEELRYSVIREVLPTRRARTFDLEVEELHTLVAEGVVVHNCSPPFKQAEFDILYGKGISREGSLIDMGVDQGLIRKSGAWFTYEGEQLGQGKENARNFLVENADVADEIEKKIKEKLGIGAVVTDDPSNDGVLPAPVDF
Nature of the experiment: Fluorescence Cell-Free Homogeneous Dose Retest to Identify Inhibitors of RecA-Intein Splicing Activity. [Related pubchem assays (depositor defined):AID2097, AID2223, AID489010, AID492950]. The experiment is classed as functional.

Experiment [8] addresses Cytochrome P450 2D6 (Homo sapiens, UniProt P10635).
Experiment [9] addresses Luciferin 4-monooxygenase (Photinus pyralis, UniProt P08659). Briefly: firefly luciferase enzyme inhibitors, dose response, biochemical, luminescence (AID 1891).
A short description of experiment [10]: Luminescence Cell-Based Dose Confirmation HTS to Identify Inhibitors of Platelet Dense Granule Release. [Related pubchem assays: 1663 (Primary HTS), 1678 (Summary of Project)]. The experiment is classed as functional.
The target of experiment [11] is T5, Microphthalmia-associated transcription factor (Homo sapiens, UniProt O75030).
T5 sequence (O75030 whole entry): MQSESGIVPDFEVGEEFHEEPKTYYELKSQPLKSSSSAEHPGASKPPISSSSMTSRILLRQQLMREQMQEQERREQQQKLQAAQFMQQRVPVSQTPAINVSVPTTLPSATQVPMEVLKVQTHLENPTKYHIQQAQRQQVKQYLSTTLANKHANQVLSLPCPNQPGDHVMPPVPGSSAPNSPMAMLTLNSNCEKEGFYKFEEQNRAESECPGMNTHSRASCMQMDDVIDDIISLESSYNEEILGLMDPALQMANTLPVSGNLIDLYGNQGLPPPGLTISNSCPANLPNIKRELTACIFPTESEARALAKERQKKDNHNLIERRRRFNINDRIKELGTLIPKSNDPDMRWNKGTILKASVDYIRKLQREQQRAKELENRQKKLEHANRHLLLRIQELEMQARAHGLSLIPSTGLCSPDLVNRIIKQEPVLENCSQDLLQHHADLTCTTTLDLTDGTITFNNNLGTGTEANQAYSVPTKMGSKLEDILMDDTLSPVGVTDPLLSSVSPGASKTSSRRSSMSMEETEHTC
Nature of the experiment: TRPM1 promoter luciferase signal decrease, dose response, MITF inhibitor project, cell-based, SK-MEL-5, cherry-picked, set 3 (AID 493073).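 Further: SK-MEL-5 melanoma cells with luciferase driven by the MITF target TRPM1 promoter.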 The experiment is classed as functional.

The AC50 is the midpoint of the concentration-response curve, whichever way the signal moves. A word on the EC50: it is the concentration at which the effect is half-maximal.

Molecules are shown by their SMILES. Activity calls are given as the source filed them.

Cytochrome P450 3A4, sequence (P08684 whole entry): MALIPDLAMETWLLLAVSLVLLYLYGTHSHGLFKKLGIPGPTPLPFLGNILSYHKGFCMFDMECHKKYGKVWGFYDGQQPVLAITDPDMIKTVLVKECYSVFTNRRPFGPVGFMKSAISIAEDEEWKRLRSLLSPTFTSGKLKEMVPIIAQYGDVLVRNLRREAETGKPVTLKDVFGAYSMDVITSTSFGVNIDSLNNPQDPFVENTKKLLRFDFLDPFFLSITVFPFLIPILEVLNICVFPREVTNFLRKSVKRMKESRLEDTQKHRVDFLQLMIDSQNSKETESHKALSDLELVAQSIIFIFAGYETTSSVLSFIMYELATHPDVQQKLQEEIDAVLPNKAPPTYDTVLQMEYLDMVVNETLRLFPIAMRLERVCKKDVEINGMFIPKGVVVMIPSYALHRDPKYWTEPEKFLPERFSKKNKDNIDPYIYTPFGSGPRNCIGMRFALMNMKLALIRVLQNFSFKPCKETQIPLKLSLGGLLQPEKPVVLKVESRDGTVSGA
Cytochrome P450 2C19, sequence (P33261 whole entry): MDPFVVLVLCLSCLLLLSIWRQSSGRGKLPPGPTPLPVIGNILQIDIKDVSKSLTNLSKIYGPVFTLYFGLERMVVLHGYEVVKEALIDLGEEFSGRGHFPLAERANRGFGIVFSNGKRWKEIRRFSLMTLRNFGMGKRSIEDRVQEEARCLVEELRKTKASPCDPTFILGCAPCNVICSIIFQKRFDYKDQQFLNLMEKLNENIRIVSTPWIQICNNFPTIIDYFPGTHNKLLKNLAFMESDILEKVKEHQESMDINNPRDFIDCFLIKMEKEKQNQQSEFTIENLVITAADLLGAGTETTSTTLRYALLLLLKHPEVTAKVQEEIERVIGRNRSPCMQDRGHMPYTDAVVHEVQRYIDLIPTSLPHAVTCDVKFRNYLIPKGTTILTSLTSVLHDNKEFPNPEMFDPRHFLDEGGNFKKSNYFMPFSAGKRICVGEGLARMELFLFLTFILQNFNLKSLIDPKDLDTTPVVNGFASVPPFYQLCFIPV
Cytochrome P450 2C9, sequence (P11712 whole entry): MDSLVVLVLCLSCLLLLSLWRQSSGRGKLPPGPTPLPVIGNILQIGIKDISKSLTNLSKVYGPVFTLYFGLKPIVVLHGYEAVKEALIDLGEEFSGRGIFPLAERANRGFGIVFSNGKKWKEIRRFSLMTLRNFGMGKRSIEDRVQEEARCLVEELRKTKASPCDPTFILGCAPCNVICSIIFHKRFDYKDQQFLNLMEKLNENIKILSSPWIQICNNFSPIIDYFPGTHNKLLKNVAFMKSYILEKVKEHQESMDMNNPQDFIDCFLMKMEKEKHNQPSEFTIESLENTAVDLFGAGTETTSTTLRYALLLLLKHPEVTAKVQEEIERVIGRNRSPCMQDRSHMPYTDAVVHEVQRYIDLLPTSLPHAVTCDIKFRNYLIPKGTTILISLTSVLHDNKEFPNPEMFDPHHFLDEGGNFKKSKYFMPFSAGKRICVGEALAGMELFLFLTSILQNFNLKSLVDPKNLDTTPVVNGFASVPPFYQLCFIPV
Cytochrome P450 2D6, sequence (P10635 whole entry): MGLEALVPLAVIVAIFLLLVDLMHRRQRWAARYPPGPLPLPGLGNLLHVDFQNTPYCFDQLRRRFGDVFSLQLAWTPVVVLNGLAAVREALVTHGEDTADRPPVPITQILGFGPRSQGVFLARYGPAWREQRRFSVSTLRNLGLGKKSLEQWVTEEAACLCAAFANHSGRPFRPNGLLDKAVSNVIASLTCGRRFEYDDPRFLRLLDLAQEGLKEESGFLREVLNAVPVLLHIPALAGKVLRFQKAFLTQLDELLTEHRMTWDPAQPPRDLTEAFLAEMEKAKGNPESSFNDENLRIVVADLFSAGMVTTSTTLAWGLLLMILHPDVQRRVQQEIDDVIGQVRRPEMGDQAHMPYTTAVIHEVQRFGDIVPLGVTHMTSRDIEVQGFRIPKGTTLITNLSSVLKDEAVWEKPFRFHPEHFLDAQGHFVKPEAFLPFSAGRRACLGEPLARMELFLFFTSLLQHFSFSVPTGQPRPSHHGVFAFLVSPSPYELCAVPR
Luciferin 4-monooxygenase, sequence (P08659 whole entry): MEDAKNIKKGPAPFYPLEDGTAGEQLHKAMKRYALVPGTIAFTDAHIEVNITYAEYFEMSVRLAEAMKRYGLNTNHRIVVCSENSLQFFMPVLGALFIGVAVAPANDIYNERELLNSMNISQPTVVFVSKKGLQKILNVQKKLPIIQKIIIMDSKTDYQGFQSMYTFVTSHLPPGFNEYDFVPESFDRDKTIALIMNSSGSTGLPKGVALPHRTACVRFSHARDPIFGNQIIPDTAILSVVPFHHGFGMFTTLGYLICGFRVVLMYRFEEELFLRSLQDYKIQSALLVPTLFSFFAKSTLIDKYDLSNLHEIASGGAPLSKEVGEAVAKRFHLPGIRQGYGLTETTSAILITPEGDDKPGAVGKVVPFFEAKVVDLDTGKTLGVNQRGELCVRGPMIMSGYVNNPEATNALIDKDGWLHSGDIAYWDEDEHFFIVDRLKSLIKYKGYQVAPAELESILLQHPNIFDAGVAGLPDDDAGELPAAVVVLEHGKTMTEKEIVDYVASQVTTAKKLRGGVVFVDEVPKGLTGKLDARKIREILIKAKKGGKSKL

`CCC/C=C(\CCC)C(NP(=O)(c1ccccc1)c1ccccc1)c1ccc(C(F)(F)F)cc1` (stereo not given): the results for the AC50 in [1] and in experiment [2] were 39.8 µM (inconclusive) and 12.6 µM (inconclusive), respectively.

For `Cc1ccc(NC(=O)c2sc3ncn(CC(=O)N4CCOCC4)c(=O)c3c2C)c(Br)c1`, in [3], the EC50 is > 260 µM (inactive).

In the case of `COc1ccc(Oc2ncc3nc(-c4ccc(OC)cc4)c(=O)n(Cc4cccs4)c3n2)cc1`, the AC50 in [4] was 15.8 µM (inconclusive); in experiment [5] it was 3.16 µM (inconclusive); in experiment [2], 3.16 µM (inconclusive).

As for `COc1ccc(S(=O)(=O)N/N=c2\oc3c(OC)cccc3cc2S(=O)(=O)c2ccc(C)cc2)cc1OC`, in experiment [3], the EC50 was 67.1 µM (active).

Take `CC(=O)c1cc(C#N)c(Oc2ccc(F)cc2)nc1C`: the figures for the AC50 in experiment [1] and in experiment [2] were 10 µM (inconclusive) and 3.98 µM (inconclusive), respectively.

Consider `CC(=O)NC1C(OCCOc2ccc(Cl)cc2Cl)OC(COC(C)=O)C(OC(C)=O)C1OC(C)=O` (stereo not given), for which the AC50 in experiment [1] was 15.8 µM (inconclusive); in experiment [2], 4.47 µM (inconclusive).

In the case of `Cc1nc2nc(-c3ccc(F)cc3)cn2nc1C`, the EC50 in [3] is > 260 µM (inconclusive).

`Fc1cccc(-c2nnn3c2nc(Cl)c2ccccc23)c1`: the EC50 in experiment [3] was 13.6 µM (inconclusive).

Regarding `c1ccc(N2CCCC3(CCNCC3)C2)nc1`, the half-maximal activity concentration (AC50) in experiment [1] is 20 µM (inconclusive); in [4], 25.1 µM (inconclusive); in experiment [5], 15.8 µM (inconclusive); in [2], 39.8 µM (inconclusive).

As for `COc1cc(CNn2nnnc2N)ccc1OCc1c(Cl)cccc1Cl`, in [2], the AC50 was 25.1 µM (inconclusive).

`O=C1CS/C(=C\[N+](=O)[O-])N1c1ccc(OC(F)(F)F)cc1`: the AC50 in [6] was 219 µM (active); in [8], 15.8 µM (inconclusive); in [4], 6.31 µM (inconclusive); in [2] it was 15.8 µM (inconclusive). For the same molecule, the EC50 in experiment [7] is 10.9 µM (active).

For the molecule `O=C(Cc1c(O)c2ccccc2oc1=O)c1ccc(C(F)(F)F)cc1`, in experiment [3], the EC50 was > 260 µM (inactive).

On to `CCC(C)C(=O)Nc1ncc2c(n1)CC(c1cccs1)CC2=O` (stereo not given), for which the values for the EC50 in [9], in experiment [10] and in [3] were > 112 µM (not active), > 112 µM (not active) and > 260 µM (inactive), respectively.

For the molecule `COc1cccc(C(=O)C2=C(O)C(=O)N(c3ccccn3)C2c2ccc(OC)c(OC)c2)c1` (stereo not given), the AC50 was 17.8 µM (inconclusive) in [5] and 15.8 µM (inconclusive) in experiment [2].

Take `Fc1cccc(F)c1CN1CCN(c2ccc(Cl)cc2)CC1`: the EC50 in experiment [3] is > 260 µM (inactive).

For `CNC(=O)NC(=S)NC(=O)c1ccc(OC)cc1`, the AC50 in experiment [5] and in experiment [2] was 31.6 µM (inconclusive) throughout.

`O=C1NC2c3c(I)sc(I)c3C(=O)C2O1` (stereo not given): the AC50 in experiment [11] is 15.5 µM (active).

In the case of `CCCCc1c(O)n(-c2ccc(OC)cc2)c(SCC(=O)N2CCOCC2)nc1=O`, the EC50 in [3] is > 260 µM (inactive).

Take `COc1ccc(S(=O)(=O)N(C)c2ccc(C(=O)NCc3ccccn3)cc2)cc1`: the EC50 in [3] is > 260 µM (inactive).

Regarding `CCCC[C@@H]1C[C@H]1C(NC(=O)c1ccccc1)c1ccc(Cl)cc1` (stereo not given in full), the AC50 in experiment [8] is 20 µM (inconclusive); in [2], 2.51 µM (inconclusive).

Take `COC(=O)c1cnc2c(c(C)nn2C)c1OC`: the EC50 in experiment [3] is > 260 µM (inactive).

`N#CCC(CNc1ncc(C(F)(F)F)cc1Cl)OC(=O)c1ccc(Cl)cc1Cl` (stereo not given): the EC50 in [3] was 42.6 µM (active).

With `O=C(Nc1ccc(Cl)cc1)NC1CCCCC1`, the AC50 in experiment [2] is 12.6 µM (inconclusive).

Source of the values: ChEMBL document CHEMBL1201862, “PubChem BioAssay data set” (2004).
